Test results: ChEMBL document CHEMBL5352419, “Design, synthesis, and biological evaluation of tetrahydroquinoline amphiphiles as membrane-targeting antimicrobials against pathogenic bacteria and fungi” (Eur J Med Chem, 2022)
Converted amounts (≈) assume the structure as drawn. The source made the active and inactive calls. The calls are words filed in the database; no cut-off is given here.

Assays:
Candida albicans [1] = test: Antimicrobial activity against Candida albicans ATCC10231 assessed as fungal growth inhibition incubated for 48 hrs by Sabouraud Dextrose broth based dilution assay; format: functional
Staphylococcus aureus [2] = test: Antimicrobial activity against Staphylococcus aureus ATCC29213 assessed as bacterial growth inhibition incubated for 24 hrs by Muller Hinton broth based dilution assay; format: functional
Staphylococcus aureus [3] = test: Antimicrobial activity against methicillin-resistant Staphylococcus aureus N315 assessed as bacterial growth inhibition incubated for 24 hrs by Muller Hinton broth based dilution assay; format: functional
Staphylococcus aureus [4] = test: Antimicrobial activity against methicillin-resistant Staphylococcus aureus NCTC10442 assessed as bacterial growth inhibition incubated for 24 hrs by Muller Hinton broth based dilution assay; format: functional
[5] = Hemolytic activity in rabbit RBC incubated for 1 hr by absorbance based microplate reader assay; format: toxicity, cell-based, Oryctolagus cuniculus, Erythrocyte; conditions: rabbit red blood cells (erythrocytes)
Acinetobacter baumannii [6] = test: Antimicrobial activity against Acinetobacter baumannii ATCC17978 assessed as bacterial growth inhibition incubated for 24 hrs by Muller Hinton broth based dilution assay; format: functional
Acinetobacter baumannii [7] = test: Antimicrobial activity against Acinetobacter baumannii R2889 assessed as bacterial growth inhibition incubated for 24 hrs by Muller Hinton broth based dilution assay; format: functional
Klebsiella pneumoniae = test: Antimicrobial activity against Klebsiella pneumoniae ATCC14581 assessed as bacterial growth inhibition incubated for 24 hrs by Muller Hinton broth based dilution assay; format: functional
Staphylococcus aureus [8] = test: Antimicrobial activity against methicillin-resistant Staphylococcus aureus NCTC10442 assessed as bacterial growth inhibition incubated for 24 hrs in presence of 3220 ug/mL Na+ by Muller Hinton broth based dilution assay; format: functional
Staphylococcus aureus [9] = test: Antimicrobial activity against Staphylococcus aureus ATCC29213 assessed as bacterial growth inhibition incubated for 24 hrs in presence of 175.5 ug/mL K+ by Muller Hinton broth based dilution assay; format: functional
Staphylococcus aureus [10] = test: Antimicrobial activity against methicillin-resistant Staphylococcus aureus NCTC10442 assessed as bacterial growth inhibition incubated for 24 hrs in presence of 175.5 ug/mL K+ by Muller Hinton broth based dilution assay; format: functional
Escherichia coli [11] = test: Antimicrobial activity against Escherichia coli ATCC25922 assessed as bacterial growth inhibition incubated for 24 hrs in presence of 175.5 ug/mL K+ by Muller Hinton broth based dilution assay; format: functional
Candida albicans [12] = test: Antimicrobial activity against Candida albicans ATCC10231 assessed as fungal growth inhibition incubated for 48 hrs in presence of 175.5 ug/mL K+ by Sabouraud Dextrose broth based dilution assay; format: functional
Candida albicans [13] = test: Antimicrobial activity against Candida albicans CMCC98001 assessed as fungal growth inhibition incubated for 48 hrs in presence of 175.5 ug/mL K+ by Sabouraud Dextrose broth based dilution assay; format: functional
Candida albicans [14] = test: Antimicrobial activity against Candida albicans CMCC98001 assessed as fungal growth inhibition incubated for 48 hrs in presence of 100 ug/mL Ca2+ by Sabouraud Dextrose broth based dilution assay; format: functional
Candida albicans [15] = test: Antimicrobial activity against Candida albicans ATCC10231 assessed as fungal growth inhibition incubated for 48 hrs in presence of 24.3 ug/mL Mg2+ by Sabouraud Dextrose broth based dilution assay; format: functional
Staphylococcus aureus [16] = test: Antimicrobial activity against Staphylococcus aureus ATCC29213 assessed as bacterial killing at 1 to 8 times of MIC measured upto 24 hrs by time-kill kinetics assay; format: functional, organism-based
Escherichia coli [17] = test: Induction of drug resistance in Escherichia coli ATCC25922 assessed as change in MIC at sub-inhibitory concentration incubated for 21 to 22 passages; format: functional
Cell membrane [18] = test: Disruption of membrane integrity in Escherichia coli ATCC25922 assessed as increase in fluorescence intensity at 1 to 8 times of MIC measured for 1 hr by SYTOX green dye based fluorescence analysis
Cell membrane [19] = test: Disruption of membrane integrity in Staphylococcus aureus ATCC29213 assessed as red fluorescence at 8 times of MIC incubated for 2 hrs under dark condition by SYTO 9 and PI staining based laser confocal microscopy analysis
Staphylococcus aureus [20] = test: Antibiofilm activity against Staphylococcus aureus ATCC29213 assessed as inhibition of biofilm formation at 3.125 ug/mL incubated for 24 hrs by crystal violet staining based analysis relative to control; format: functional
Escherichia coli [21] = test: Antibiofilm activity against Escherichia coli ATCC25922 assessed as inhibition of biofilm formation at 0.39 ug/mL incubated for 24 hrs by crystal violet staining based analysis relative to control; format: functional
Escherichia coli [22] = test: Disruption of preformed biofilm in Escherichia coli ATCC25922 assessed as residual preformed biofilm at 6.25 ug/mL incubated for 24 hrs by crystal violet staining based analysis relative to control; format: functional; conditions: dose 6.25 µg/ml
Staphylococcus aureus [23] = test: Disruption of preformed biofilm in Staphylococcus aureus ATCC29213 assessed as residual preformed biofilm at 0.39 ug/mL incubated for 24 hrs by crystal violet staining based analysis relative to control; format: functional; conditions: dose 0.39 µg/ml
Staphylococcus aureus [24] = test: Disruption of preformed biofilm in Staphylococcus aureus ATCC29213 assessed as residual preformed biofilm at 3.125 ug/mL incubated for 24 hrs by crystal violet staining based analysis relative to control; format: functional; conditions: dose 3.125 µg/ml
Escherichia coli [25] = test: Disruption of preformed biofilm in Escherichia coli ATCC25922 assessed as residual preformed biofilm at 0.78 ug/mL incubated for 24 hrs by crystal violet staining based analysis relative to control; format: functional; conditions: dose 0.78 µg/ml
Escherichia coli [26] = test: Disruption of preformed biofilm in Escherichia coli ATCC25922 assessed as residual preformed biofilm at 3.125 ug/mL incubated for 24 hrs by crystal violet staining based analysis relative to control; format: functional; conditions: dose 3.125 µg/ml
Escherichia coli [27] = test: Disruption of preformed biofilm in Escherichia coli ATCC25922 assessed as residual preformed biofilm at 25 ug/mL incubated for 24 hrs by crystal violet staining based analysis relative to control; format: functional; conditions: dose 25 µg/ml
[28] = Cytotoxicity against mouse NCTC clone 929 cells assessed as viable cells at 3.125 ug/mL incubated for 24 hrs by CCK-8 assay relative to control; format: toxicity, cell-based; conditions: NCTC clone 929 (L929) cells, at 3.125 µg/mL, read-out: Activity
[29] = Cytotoxicity against mouse NCTC clone 929 cells assessed as viable cells at 12.5 ug/mL incubated for 24 hrs by CCK-8 assay relative to control; format: toxicity, cell-based; conditions: NCTC clone 929 (L929) cells, at 12.5 µg/mL, read-out: Activity
[30] = Cytotoxicity against mouse NCTC clone 929 cells assessed as viable cells at 50 ug/mL incubated for 24 hrs by CCK-8 assay relative to control; format: toxicity, cell-based; conditions: NCTC clone 929 (L929) cells, at 50 µg/mL, read-out: Activity
[31] = Cytotoxicity against mouse corneal epithelial cells assessed as viable cells at 3.125 ug/mL incubated for 24 hrs by CCK-8 assay relative to control; format: toxicity, cell-based, Corneal epithelial cell; conditions: at 3.125 µg/mL, read-out: Activity
[32] = Cytotoxicity against mouse corneal epithelial cells assessed as viable cells at 6.25 ug/mL incubated for 24 hrs by CCK-8 assay relative to control; format: toxicity, cell-based, Corneal epithelial cell; conditions: at 6.25 µg/mL, read-out: Activity
[33] = Cytotoxicity against mouse corneal epithelial cells assessed as viable cells at 50 ug/mL incubated for 24 hrs by CCK-8 assay relative to control; format: toxicity, cell-based, Corneal epithelial cell; conditions: at 50 µg/mL, read-out: Activity

SMILES | MIC (Candida albicans [1]) | MIC (Staphylococcus aureus [2]) | MIC (Staphylococcus aureus [3]) | MIC (Staphylococcus aureus [4]) | HC50 at 1 h [5] | MIC (Acinetobacter baumannii [6]) | MIC (Acinetobacter baumannii [7]) | MIC (Klebsiella pneumoniae) | MIC (Staphylococcus aureus [8]) | MIC (Staphylococcus aureus [9]) | MIC (Staphylococcus aureus [10]) | MIC (Escherichia coli [11]) | MIC (Candida albicans [12]) | MIC (Candida albicans [13]) | MIC (Candida albicans [14]) | MIC (Candida albicans [15]) | Activity (Staphylococcus aureus [16]) | Activity (Escherichia coli [17]) | Activity (Cell membrane [18]) | Activity (Cell membrane [19]) | also measured
CCCCCCCCCN1CCCc2cc(OCCCCNC(=N)N)ccc21 | 1.56 µg/mL (≈ 4.01 µM) | 1.56 µg/mL (≈ 4.01 µM) | 0.78 µg/mL (≈ 2.01 µM) | 1.56 µg/mL (≈ 4.01 µM) | > 200 µg/mL | 1.56 µg/mL (≈ 4.01 µM) | 3.12 µg/mL (≈ 8.04 µM) | 1.56 µg/mL (≈ 4.01 µM) | 0.78 µg/mL | 0.78 µg/mL | 0.78 µg/mL | 1.56 µg/mL | 1.56 µg/mL | 0.78 µg/mL | 1.56 µg/mL | 1.56 µg/mL | Dose-Dependent Effect | inactive | Dose-Dependent Effect | Active | inhibition at 3.125 µg/mL (Staphylococcus aureus [20]): 102%; inhibition at 0.39 µg/mL (Escherichia coli [21]): 21.6%; Activity (Escherichia coli [22]): 15.34%; Activity (Staphylococcus aureus [23]): 81.8%; Activity (Staphylococcus aureus [24]): 10.76%; Activity (Escherichia coli [25]): 93.41%; Activity (Escherichia coli [26]): 32.54%; Activity (Escherichia coli [27]): 1.67%; viability at 24 h, 3.125 ug/mL [28]: 95.5%; viability at 24 h, 12.5 ug/mL [29]: 89.4%; viability at 24 h, 50 ug/mL [30]: 23.7%; viability at 24 h, 3.125 ug/mL [31]: 95.3%; viability at 24 h, 6.25 ug/mL [32]: 88.9%; viability at 24 h, 50 ug/mL [33]: 8.36%
CC(C)=CCN1CCCc2cc(OCCCCCCCCNC(=N)N)ccc21 | 0.78 µg/mL (≈ 2.02 µM) | 1.56 µg/mL (≈ 4.04 µM) | 0.78 µg/mL (≈ 2.02 µM) | 0.78 µg/mL (≈ 2.02 µM) | > 200 µg/mL | 3.12 µg/mL (≈ 8.08 µM) | 3.12 µg/mL (≈ 8.08 µM) | 3.12 µg/mL (≈ 8.08 µM) | 0.78 µg/mL | 0.78 µg/mL | 0.78 µg/mL | 3.12 µg/mL | 0.78 µg/mL | 0.78 µg/mL | 1.56 µg/mL | 1.56 µg/mL | Dose-Dependent Effect | inactive | Dose-Dependent Effect | Active | inhibition at 3.125 µg/mL (Staphylococcus aureus [20]): 100%; inhibition at 0.39 µg/mL (Escherichia coli [21]): 13.5%; Activity (Escherichia coli [22]): 18.49%; Activity (Staphylococcus aureus [23]): 80.76%; Activity (Staphylococcus aureus [24]): 29.55%; Activity (Escherichia coli [25]): 96.08%; Activity (Escherichia coli [26]): 47.23%; Activity (Escherichia coli [27]): 4.34%; viability at 24 h, 3.125 ug/mL [28]: 95.5%; viability at 24 h, 12.5 ug/mL [29]: 89.3%; viability at 24 h, 50 ug/mL [30]: 29.9%; viability at 24 h, 3.125 ug/mL [31]: 99.7%; viability at 24 h, 6.25 ug/mL [32]: 93.6%; viability at 24 h, 50 ug/mL [33]: 36.3%
